The values below come from US12060333B2 (Hoffmann-La Roche Inc., priority 2021, dated 2024).

The first assay addresses SARS-CoV-2 3CLpro (Severe acute respiratory syndrome coronavirus 2, UniProt P0DTD1). The assay can be described thus: biochemical. The settings on record: IC50 (μM), SARS-CoV-2 3CLPro assay.
Molecule `Cc1cc(C(=O)N[C@@H](CC23CC(C2)C3)C(=O)NN(C[C@@H]2CCNC2=O)C(=O)[C@H](F)Cl)no1` [Example 71, N-[(1S)-1-(1-bicyclo[1.1.1]pentanylmethyl)-2-[2-[(2R)-2-chloro-2-fluoro-acetyl]-2-[[(3S)-2-axopyrrolidin-3-yl]methyl]hydrazino]-2-axo-ethyl]-5-methyl-isoxazole-3-carboxamide] showed an IC50 of 0.11 µM. On the same count and under the same terms, for `COc1cccc2[nH]c(C(=O)N[C@@H](CC(C)C)C(=O)NN(CCC(N)=O)C(=O)CCl)cc12` [Example 27, 4-Methoxy-N-[(1S)-1-[[(3-amino-3-oxo-propyl)-(2-chloroacetyl)amino]carbamoyl]-3-methyl-butyl]-1H-indole-2-carboxamide] the value was 0.006 µM. Still for that read-out and setting: for `CC(C)C[C@H](NC(=O)c1cc2cc(F)ccc2[nH]1)C(=O)NN(CCC(N)=O)C(=O)[C@H](F)Cl` (racemic) [Example 57-B, 5-fluoro-N-[rac-(1S)-1-[[(3-amino-3-oxo-propyl)-[rac-(2R)-2-chloro-2-fluoro-acetyl]amino]carbamoyl]-3-methyl-butyl]-1H-indole-2-carboxamide] the value was 0.01 µM; for `NC(=O)CCN(NC(=O)[C@H](CC12CC(C1)C2)NC(=O)c1nc2ccccc2[nH]1)C(=O)C(F)Cl` (mixture of isomers) [Example 67, N-[rac-(1S)-2-[2-(3-amino-3-oxo-propyl)-2-(2-chloro-2-fluoro-acetyl)hydrazino]-1-(1-bicyclo[1.1.1]pentanylmethyl)-2-axo-ethyl]-1H-benzimidazole-2-carboxamide], 0.023 µM.

For `CC(C)C[C@H](NC(=O)/C=C/c1ccccc1)C(=O)NN(CCC(N)=O)C(=O)[C@H](F)Cl` (single isomer, unassigned) [Example 86-A], the IC50 was 0.75 µM. Same read-out and setting: the same measure for `CC(C)C[C@H](NC(=O)c1cc2ccccc2[nH]1)C(=O)NN(CCC(N)=O)C(=O)[C@@H](F)Cl` (single isomer, unassigned) [Example 41-A]: 0.005 µM; for `CC(C)C[C@H](NC(=O)c1cc2cc(Cl)ccc2[nH]1)C(=O)NN(CCC(N)=O)C(=O)[C@@H](F)Cl` (racemic) [Example 58-A, 5-Chloro-N-[rac-(1S)-1-[[(3-amino-3-oxo-propyl)-[rac-(2S)-2-chloro-2-fluoro-acetyl]amino]carbamoyl]-3-methyl-butyl]-1H-indole-2-carboxamide]: 0.032 µM; for `NC(=O)CCN(NC(=O)[C@H](CC1CCC1)NC(=O)c1cnccn1)C(=O)C(F)Cl` (mixture of isomers) [Example 79, N-[rac-(1S)-2-[2-(3-amino-3-oxo-propyl)-2-(2-chloro-2-fluoro-acetyl)hydrazino]-1-(cyclobutylmethyl)-2-axo-ethyl]pyrazine-2-carboxamide]: 0.15 µM.

With `COc1cccc2[nH]c(C(=O)N[C@@H](CC3CCCCC3)C(=O)NN(CCC(N)=O)C(=O)CCl)cc12` [Example 32, N-[(1S)-2-[2-(3-Amino-3-axo-propyl)-2-(2-chloroacetyl)hydrazino]-1-(cyclohexylmethyl)-2-axo-ethyl]-4-methoxy-1H-indole-2-carboxamide], the IC50 turned out to be 0.002 µM. The same measure, in the same setting: for `CC(C)C[C@H](NC(=O)c1cc2ccccc2[nH]1)C(=O)NN(C[C@H]1CCNC1=O)C(=O)CF` (single isomer, unassigned) [Example 38-B] the value was 3.16 µM; for `CC(C)C[C@H](NC(=O)c1cc2ccccc2[nH]1)C(=O)NN(CC1CCNC1=O)C(=O)CF` (stereo partly drawn) [Example 38, N-[(1S)-1-[[(2-fluoroacetyl)-[(2-oxo-pyrrolidin-3-yl)methyl]amino]carbamoyl]-3-methyl-butyl]-1H-indole-2-carboxamide], 0.29 µM.

`CC(C)C[C@H](NC(=O)OCc1ccccc1)C(=O)NN(CC1CCCNC1=O)C(=O)CCl` (stereo partly drawn) [Example 20, Benzyl N-[(1S)-1-[[(2-chloroacetyl)-[(2-oxo-3-piperidyl)methyl]amino]carbamoyl]-3-methyl-butyl]carbamate] had an IC50 of 0.0046 µM. As for `CC(C)C[C@H](NC(=O)c1nc2ccccc2[nH]1)C(=O)NN(CCC(N)=O)C(=O)[C@H](F)Cl` (single isomer, unassigned) [Example 63-B], the IC50 is 0.007 µM.

Staying with this assay, now noted: read-out: IC50 (μM), SARS-CoV-2 3CLPro assay.
As for `Cc1cc(C(=O)N[C@@H](CCC(C)C)C(=O)NN(C[C@@H]2CCNC2=O)C(=O)[C@H](F)Cl)no1` [Example 101, N-[(1S)-1-[[[(2R)-2-chloro-2-fluoro-acetyl]-[[(3S)-2-axopyrrolidin-3-yl]methyl]amino]carbamoyl]-4-methyl-pentyl]-5-methyl-isoxazole-3-carboxamide], the IC50 came to 0.09 µM. For `O=C(N[C@@H](CC12CC(C1)C2)C(=O)NN(C[C@@H]1CCNC1=O)C(=O)[C@H](F)Cl)c1cc(C(F)(F)F)on1` [Example 99, N-[(1S)-1-(1-bicyclo[1.1.1]pentanylmethyl)-2-[2-[(2R)-2-chloro-2-fluoro-acetyl]-2-[[(3S)-2-axopyrrolidin-3-yl]methyl]hydrazino]-2-axo-ethyl]-5-(trifluoromethyl)isoxazole-3-carboxamide], the IC50 worked out at 0.071 µM. Still for that read-out and setting: for `CC(C)C[C@H](NC(=O)/C=C/c1ccc(Cl)cc1F)C(=O)NN(CCC(N)=O)C(=O)CCl` [Example 34, 3-[(2-Chloroacetyl)-[[(2S)-2-[[(E)-3-(4-chloro-2-fluoro-phenyl)prop-2-enoyl]amino]-4-methyl-pentanoyl]amino]amino]propanamide] the value was 0.005 µM; for `NC(=O)CCN(NC(=O)[C@H](CC1CCCCC1)NC(=O)c1cc2ccccc2[nH]1)C(=O)[C@@H](F)Cl` [Example 59-A, N-[(1S)-2-[2-(3-amino-3-oxo-propyl)-2-[(2S)-2-chloro-2-fluoro-acetyl]hydrazino]-1-(cyclohexylmethyl)-2-axo-ethyl]-1H-indole-2-carboxamide], 0.023 µM. As to `CC(C)C[C@H](NC(=O)c1cc2ncccc2[nH]1)C(=O)NN(CCC(N)=O)C(=O)C(F)Cl` (stereo partly drawn) [Example 91, N-[(1S)-1-[[(3-amino-3-oxo-propyl)-(2-chloro-2-fluoro-acetyl)amino]carbamoyl]-3-methyl-butyl]-1H-pyrrolo[3,2-b]pyridine-2-carboxamide], the IC50 is 0.038 µM. Same read-out and setting: the same measure for `CC(C)C[C@H](NC(=O)OCc1ccccc1)C(=O)NN(CC1CCNC1=O)C(=O)CCl` (stereo partly drawn) [Example 18, Benzyl N-[(1S)-1-[[(2-chloroacetyl)-[(2-oxo-pyrrolidin-3-yl)methyl]amino]carbamoyl]-3-methyl-butyl]carbamate]: 0.017 µM; for `CC(C)C[C@H](NC(=O)OCc1ccccc1)C(=O)NN(Cc1c[nH]cn1)C(=O)CCl` [Example 24, Benzyl N-[(1S)-1-[[(2-chloroacetyl)-(1H-imidazol-4-ylmethyl)amino]carbamoyl]-3-methyl-butyl]carbamate]: 0.087 µM; for `Cc1oncc1C(=O)N[C@@H](CC(C)C)C(=O)NN(CCC(N)=O)C(=O)CCl` [Example 46, N-[(1S)-1-[[(3-Amino-3-oxo-propyl)-(2-chloroacetyl)amino]carbamoyl]-3-methyl-butyl]-5-methyl-isoxazole-4-carboxamide]: 0.07 µM. On the same count and under the same terms, for `NC(=O)CCN(NC(=O)CNC(=O)OCc1ccccc1)C(=O)CCl` [Example 1, Benzyl N-[2-[2-(3-amino-3-oxo-propyl)-2-(2-chloroacetyl)hydrazino]-2-axo-ethyl]carbamate] the value was 4.59 µM; for `CCC(Cl)C(=O)N(CCC(N)=O)NC(=O)[C@H](CC(C)C)NC(=O)OCc1ccccc1` (stereo partly drawn) [Example 5, Benzyl N-[(1S)-1-[[(3-amino-3-oxo-propyl)-(2-chlorobutanoyl)amino]carbamoyl]-3-methyl-butyl]carbamate], 1.76 µM; for `CC(C)C[C@H](NC(=O)OCc1ccccc1)C(=O)NN(CCC(N)=O)C(=O)CCl` [Example 2, Benzyl N-[(1S)-1-[[(3-amino-3-oxo-propyl)-(2-chloroacetyl)amino]carbamoyl]-3-methyl-butyl]carbamate], 0.017 µM.

For the molecule `NC(=O)CCN(NC(=O)[C@H](CC1CCCCC1)NC(=O)OCc1ccccc1)C(=O)CF` [Example 15, Benzyl N-[(1S)-2-[2-(3-amino-3-oxo-propyl)-2-(2-fluoroacetyl)hydrazino]-1-(cyclohexylmethyl)-2-axo-ethyl]carbamate], the IC50 turned out to be 1.2 µM.

The target of a further assay is SARS-CoV 3CLpro (Severe acute respiratory syndrome coronavirus, UniProt P0C6X7). The assay can be described thus: biochemical. The settings on record: read-out: SARS (activity in different coronaviruses).
As to `Cc1cc(C(=O)N[C@@H](CCC(C)C)C(=O)NN(C[C@@H]2CCNC2=O)C(=O)[C@H](F)Cl)no1` [Example 101, N-[(1S)-1-[[[(2R)-2-chloro-2-fluoro-acetyl]-[[(3S)-2-axopyrrolidin-3-yl]methyl]amino]carbamoyl]-4-methyl-pentyl]-5-methyl-isoxazole-3-carboxamide], the IC50 amounted to 160 nM.

Another assay deals with MERS-CoV 3CLpro (Middle East respiratory syndrome-related coronavirus, UniProt K9N7C7). The assay can be described thus: biochemical.
Conditions: not given
As for `Cc1cc(C(=O)N[C@@H](CCC(C)C)C(=O)NN(C[C@@H]2CCNC2=O)C(=O)[C@H](F)Cl)no1` [Example 101, N-[(1S)-1-[[[(2R)-2-chloro-2-fluoro-acetyl]-[[(3S)-2-axopyrrolidin-3-yl]methyl]amino]carbamoyl]-4-methyl-pentyl]-5-methyl-isoxazole-3-carboxamide], the IC50 turned out to be 320 nM.

For a further assay, the target named is HCoV-229E 3CLpro (Human coronavirus 229E, UniProt P0C6X1). The assay can be described thus: HCoV-229E 3CLpro inhibition assay (FRET). The format is biochemical. As to conditions: protease 25 nM, FRET substrate 15 μM, pre-incubated 1 hr, read-out: 229E (activity in different coronaviruses). How it is done: HCoV-229E 3CL^pro inhibition assay
The HCoV-229E 3CL^pro was expressed in E. coli BL21 (DE3) with the protein sequence of
For the HCoV-229E 3CL^pro assay, 2 μL of […] recombinant HCoV-229E 3CL protease were mixed with serial dilutions of each compound in 4 μL assay buffer containing 40 mM HEPES, pH=8.0, 1 mM CHAPS, 150 mM NaCl, 1 mM EDTA, 1 mM TCEP in a well of a 384-well plate and pre-incubated at rt for 1 hr. The custom-synthesized fluorogenic 3CL^pro peptide substrate used in the assay is as follows: FAM-[…]-TAMRA (peptide sequence according to SEQ ID NO: 3). This FRET-based substrate contains a FAM fluorophore attached at the N-terminus of a canonical 3CL^pro peptide substrate. The fluorophore is internally quenched by the TAMRA. The reaction was initiated by the addition of 10 μL of the substrate with a final concentration of 15 μM and each well was incubated at RT for 30 mins. The final concentration of the protease used at the assay was 25 nM and each compound was at a final concentration range of 100-0.0016 μM. The IC50 value which is the value causing 50% inhibition of the catalytic activity of the HCoV-229E 3CL^pro was calculated by four parameters equation analysis.
Turning to `Cc1cc(C(=O)N[C@@H](CCC(C)C)C(=O)NN(C[C@@H]2CCNC2=O)C(=O)[C@H](F)Cl)no1` [Example 101, N-[(1S)-1-[[[(2R)-2-chloro-2-fluoro-acetyl]-[[(3S)-2-axopyrrolidin-3-yl]methyl]amino]carbamoyl]-4-methyl-pentyl]-5-methyl-isoxazole-3-carboxamide], the IC50 amounted to 74 nM. The same measure, in the same setting: for `Cc1cc(C(=O)N[C@@H](CC23CC(C2)C3)C(=O)NN(C[C@@H]2CCNC2=O)C(=O)[C@H](F)Cl)no1` [Example 71, N-[(1S)-1-(1-bicyclo[1.1.1]pentanylmethyl)-2-[2-[(2R)-2-chloro-2-fluoro-acetyl]-2-[[(3S)-2-axopyrrolidin-3-yl]methyl]hydrazino]-2-axo-ethyl]-5-methyl-isoxazole-3-carboxamide] the value was 25 nM; for `O=C(N[C@@H](CC12CC(C1)C2)C(=O)NN(C[C@@H]1CCNC1=O)C(=O)[C@H](F)Cl)c1cc(C(F)(F)F)on1` [Example 99, N-[(1S)-1-(1-bicyclo[1.1.1]pentanylmethyl)-2-[2-[(2R)-2-chloro-2-fluoro-acetyl]-2-[[(3S)-2-axopyrrolidin-3-yl]methyl]hydrazino]-2-axo-ethyl]-5-(trifluoromethyl)isoxazole-3-carboxamide], 24 nM.
